From ChEMBL document CHEMBL1201862, “PubChem BioAssay data set” (2004)
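How tested: cells in 96-well plates exposed to compound for 48 hours at five concentrations. The concentration for 50% growth inhibition is given as GI50.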 The source made the active and inactive calls. Rule as the data show it: active = GI50 up to about 1.1 µM and inactive = higher.

Assays:
Experiment in all cases: growth of human tumour cells (NCI), 48 h
UACC-62 = system: UACC-62
EKVX = system: EKVX
MDA-N = system: MDA-N
SK-MEL-5 = system: SK-MEL-5
RPMI-8226 = system: RPMI-8226
SK-OV-3 = system: SK-OV-3
BT-549 = system: BT-549
MDA-MB-231 = system: MDA-MB-231
OVCAR-5 = system: OVCAR-5
SNB-75 = system: SNB-75
HL-60 = system: HL-60
SK-MEL-2 = system: SK-MEL-2
SW-620 = system: SW-620
OVCAR-4 = system: OVCAR-4
RXF 393 = system: RXF 393
NCI/ADR-RES = system: NCI/ADR-RES
HCT-116 = system: HCT-116
LOX IMVI = system: LOX IMVI
PC-3 = system: PC-3
ACHN = system: ACHN
T47D = system: T47D
NCI-H522 = system: NCI-H522
Hs-578T = system: Hs-578T
M14 = system: M14
SK-MEL-28 = system: SK-MEL-28
SN12C = system: SN12C
CAKI-1 = system: CAKI-1
MOLT-4 = system: MOLT-4
KM12 = system: KM12
HCC 2998 = system: HCC 2998
K562 = system: K562
SF-268 = system: SF-268
UACC-257 = system: UACC-257
NCI-H226 = system: NCI-H226
MCF7 = system: MCF7
SNB-19 = system: SNB-19
OVCAR-3 = system: OVCAR-3
SR = system: SR
HCT-15 = system: HCT-15
CCRF-CEM = system: CCRF-CEM
A498 = system: A498
HOP-62 = system: HOP-62
OVCAR-8 = system: OVCAR-8
HT-29 = system: HT-29
UO-31 = system: UO-31
TK-10 = system: TK-10
SF-295 = system: SF-295
NCI-H460 = system: NCI-H460
A549 = system: A549
COLO 205 = system: COLO 205
Malme-3M = system: Malme-3M
MDA-MB-435 = system: MDA-MB-435
U-251 = system: U-251
DU-145 = system: DU-145
HOP-92 = system: HOP-92
IGROV-1 = system: IGROV-1
786-0 = system: 786-0
NCI-H23 = system: NCI-H23
SF-539 = system: SF-539

## Cn1c(Sc2ccc(-c3cccnc3)n2C)ccc1-c1cccnc1
UACC-62
  GI50: 14.9 µM (inactive)
EKVX
  GI50: 24 µM (inactive)
MDA-N
  GI50: 8.57 µM (inactive)
SK-MEL-5
  GI50: 16.4 µM (inactive)
RPMI-8226
  GI50: 6.65 µM (inactive)
SK-OV-3
  GI50: 27.7 µM (inactive)
BT-549
  GI50: 20.4 µM (inactive)
MDA-MB-231
  GI50: 18.2 µM (inactive)
OVCAR-5
  GI50: 22.9 µM (inactive)
SNB-75
  GI50: 21.8 µM (inactive)
HL-60
  GI50: 2.39 µM (inactive)
SK-MEL-2
  GI50: 14.2 µM (inactive)
SW-620
  GI50: 6.93 µM (inactive)
OVCAR-4
  GI50: 14.6 µM (inactive)
RXF 393
  GI50: 18.5 µM (inactive)
NCI/ADR-RES
  GI50: 21.8 µM (inactive)
HCT-116
  GI50: 8.79 µM (inactive)
LOX IMVI
  GI50: 3.73 µM (inactive)
PC-3
  GI50: 15.5 µM (inactive)
ACHN
  GI50: 20.2 µM (inactive)
T47D
  GI50: 16.7 µM (inactive)
NCI-H522
  GI50: 10.3 µM (inactive)
Hs-578T
  GI50: 3.7 µM (inactive)
M14
  GI50: 17.1 µM (inactive)
SK-MEL-28
  GI50: 10.3 µM (inactive)
SN12C
  GI50: 16.8 µM (inactive)
CAKI-1
  GI50: 19.1 µM (inactive)
MOLT-4
  GI50: 0.353 µM (active)
KM12
  GI50: 18 µM (inactive)
HCC 2998
  GI50: 20.2 µM (inactive)
K562
  GI50: 3.12 µM (inactive)
SF-268
  GI50: 10.7 µM (inactive)
UACC-257
  GI50: 12.4 µM (inactive)
NCI-H226
  GI50: 24.5 µM (inactive)
MCF7
  GI50: 17.7 µM (inactive)
SNB-19
  GI50: 19.6 µM (inactive)
OVCAR-3
  GI50: 11.3 µM (inactive)
SR
  GI50: 2.13 µM (inactive)
HCT-15
  GI50: 16.8 µM
CCRF-CEM
  GI50: 1.96 µM (inactive)
A498
  GI50: 20.9 µM (inactive)
HOP-62
  GI50: 17.6 µM (inactive)
OVCAR-8
  GI50: 18.1 µM (inactive)
HT-29
  GI50: 23.7 µM (inactive)
UO-31
  GI50: 17.5 µM (inactive)
TK-10
  GI50: 17.3 µM (inactive)
SF-295
  GI50: 16.2 µM (inactive)
NCI-H460
  GI50: 15.2 µM (inactive)
A549
  GI50: 26.4 µM (inactive)
COLO 205
  GI50: 20 µM (inactive)
Malme-3M
  GI50: 11.1 µM (inactive)
MDA-MB-435
  GI50: 13.4 µM (inactive)
U-251
  GI50: 13.1 µM (inactive)
DU-145
  GI50: 18.1 µM (inactive)
HOP-92
  GI50: 12.9 µM (inactive)
IGROV-1
  GI50: 15 µM (inactive)
786-0
  GI50: 11.5 µM (inactive)
NCI-H23
  GI50: 16.7 µM (inactive)
SF-539
  GI50: 20.7 µM (inactive)

## CC(C)C(Cl)CC/C(CBr)=C(\Cl)CCl (stereo not drawn)
UACC-62
  GI50: 2.24 µM (inactive)
EKVX
  GI50: 19.6 µM (inactive)
MDA-N
  GI50: 2.05 µM (inactive)
SK-MEL-5
  GI50: 2.02 µM (inactive)
RPMI-8226
  GI50: 2.27 µM (inactive)
SK-OV-3
  GI50: 6.1 µM (inactive)
BT-549
  GI50: 2.05 µM (inactive)
MDA-MB-231
  GI50: 3.3 µM (inactive)
OVCAR-5
  GI50: 15.4 µM (inactive)
SNB-75
  GI50: 2.01 µM (inactive)
HL-60
  GI50: 0.54 µM (active)
SK-MEL-2
  GI50: 2.1 µM (inactive)
SW-620
  GI50: 1.8 µM (inactive)
OVCAR-4
  GI50: 2.27 µM (inactive)
RXF 393
  GI50: 2.8 µM (inactive)
NCI/ADR-RES
  GI50: 10.9 µM (inactive)
HCT-116
  GI50: 2.86 µM (inactive)
LOX IMVI
  GI50: 0.24 µM (active)
PC-3
  GI50: 10.7 µM (inactive)
ACHN
  GI50: 16 µM (inactive)
T47D
  GI50: 1.5 µM (inactive)
NCI-H522
  GI50: 0.794 µM (active)
Hs-578T
  GI50: 2.9 µM (inactive)
M14
  GI50: 1.85 µM (inactive)
SK-MEL-28
  GI50: 3.37 µM (inactive)
SN12C
  GI50: 4.73 µM (inactive)
CAKI-1
  GI50: 7.08 µM (inactive)
MOLT-4
  GI50: 1.73 µM (inactive)
KM12
  GI50: 3.21 µM (inactive)
HCC 2998
  GI50: 13.7 µM (inactive)
K562
  GI50: 0.723 µM (active)
SF-268
  GI50: 7.18 µM (inactive)
UACC-257
  GI50: 2.79 µM (inactive)
NCI-H226
  GI50: 6.7 µM (inactive)
MCF7
  GI50: 0.646 µM (active)
SNB-19
  GI50: 14.6 µM (inactive)
OVCAR-3
  GI50: 4.72 µM (inactive)
SR
  GI50: 1.69 µM (inactive)
HCT-15
  GI50: 2.89 µM
CCRF-CEM
  GI50: 0.225 µM (active)
A498
  GI50: 19.2 µM (inactive)
HOP-62
  GI50: 17.1 µM (inactive)
OVCAR-8
  GI50: 2 µM (inactive)
HT-29
  GI50: 4.75 µM (inactive)
UO-31
  GI50: 16.9 µM (inactive)
TK-10
  GI50: 14.5 µM (inactive)
SF-295
  GI50: 16.3 µM (inactive)
NCI-H460
  GI50: 13.4 µM (inactive)
A549
  GI50: 17.8 µM (inactive)
COLO 205
  GI50: 5.46 µM (inactive)
Malme-3M
  GI50: 6.71 µM (inactive)
MDA-MB-435
  GI50: 3.2 µM (inactive)
U-251
  GI50: 10.6 µM (inactive)
DU-145
  GI50: 13.4 µM (inactive)
HOP-92
  GI50: 2.25 µM (inactive)
IGROV-1
  GI50: 1.77 µM (inactive)
786-0
  GI50: 2.22 µM (inactive)
NCI-H23
  GI50: 2.67 µM (inactive)
SF-539
  GI50: 15.7 µM (inactive)
